In EP0171441A1, “Prostaglandin analogues, processes for their preparation and compositions containing them” (ONO PHARMACEUTICAL CO., LTD., priority 1984, dated 1986):
≈ marks a conversion by molar mass, not a printed value.

Tested on: cells originated from human mouth tumor (KB-cells)
Test: Test on inhibition of proliferation using cells originated from human mouth tumor (KB-cells)
Type: cell-based
Conditions: 96 h, stationary culture at 37°C for 4 days, Trypan Blue staining, surviving cell number relative to control
Procedure: The cells originated from human mouth tumor (KB-cells) were added to Eagle's MEM culture solution containing 10% bovine fetal serum, the number of cells in the culture solution was adjusted to […] cells/ml, a solution in ethanol of the compound of the present invention was added to give a concentration of 5µg/ml or less (3 compounds) and the mixture subjected to stationary culture at 37°C for 4 days. As a control, a culture solution containing 0.1% of ethanol was similarly cultured. After the culture, the cells were
stained by the Trypan Blue staining method, and the surviving cell number was measured to determine the IC50 value from the degree of inhibition relative to the control. Compounds are identified by the Example (described hereinafter) in which they are prepared.

Compound | IC50 [µg/mL]
CCCCCC=CC=C1C(=O)C=CC1CC=CCCCCOC(C)=O (stereo not drawn) [Compound 3, (5Z,14EZ)-1-0-acetyl-11-oxoprosta-5,9,12,14-tetraen-l-ol] | 1.6 (≈ 4.64 µM)
CCCCC[C@H](O)/C=C/[C@H]1C(=O)C[C@H](O)[C@@H]1C/C=C\CCCCOC(=O)C=C(C)C [Compound 1, 1-O-(3,3-dimethylacryloyl)-PGD2 alcohol] | 2.1 (≈ 4.99 µM)
CCCCC[C@H](O)/C=C/[C@H]1C(=O)C=C[C@@H]1C/C=C\CCCCOC(N)=O [Compound 1(c)] | 1.1 (≈ 3.03 µM)
CCCCCC=CC=C1C(=O)C=C[C@@H]1C/C=C\CCCCO [Compound 2, (5Z,14EZ)-11-oxoprosta-5,9,12,14-tetraen-1-ol] | < 1
